Patent publication US6133248A, “Polar drug of prodrug compositions with extended shelf-life storage and a method of making thereof” (priority 1998, dated 2000)
Where two headings read alike, the source gives them in different places. Blank lines part the entries; values can stand above or below the compound they belong to.

Tests used:
[1] = for Kd: 0.02 m tris buffer
Description: After sonication and mixing by vortex mixer, the phenytoin-suspended solutions were placed in a shaking, temperature controlled water bath for at least 5 days at 25° C. After equilibration, checked by periodic sampling, the suspensions were filtered through a membrane filter (Acrodisc, PVDF 0.2 μm, Gelman). The filtrate was isolated and diluted with HPLC mobile phase and the concentration of phenytoin was determined by HPLC. This work was performed in duplicate.
This phenomena is illustrated in Scheme (2). The binding constant for the phenytoin/(SBE)7m-β-CD complex, K1 can be calculated by the slope and intercept of the data from FIG. 3 (absence of fosphenytoin) according to Eq 2 (Hiquchi, T and Connors K. A.) […]
K1 =Slope/Intercept(1-Slope) (2)
K2, the binding constant for the fosphenytoin/(SBE)7m-β-CD complex can be calculated according to Eq. 6 as follows; K1 =(St-So')/(St-(St-So'))(Lt-(St-so')-x)
K1 =Slope/So'(1-Slope-x/Lt) (3)
K2 =x/(St'-x)(Lt-(St-So')-x
=(x/Lt)/(St'-x)(1-Slope-x/Lt) (4) […]
x/Lt=1-Slope-Slope/K1 So' (5)
Eq. 4 and Eq. 5 lead to Eqs. 6 and 7, K2 =(1/(St'-x))K1 So'/Slope-So'K1 -1) (6)
≈(1/St')(K1 So'/Slope-So'K1 -1) (7) where various terms are defined in Scheme (2). The term, St'-x, in Eq. 6 represents the free fraction of fosphenytoin in the presence of CD and theoretically should change with increasing CD concentration.

[2] = AHFS Drug Information; cited from earlier work
[3] = Phenytoin solubility in absence and presence of fosphenytoin and (SBE)7m-β-CD; format: physicochemical; settings: 0.02 m tris buffer
Description: This work was performed in duplicate.
The fosphenytoin concentration of 80.6 mg/ml (75 mg/ml anhydrous fosphenytoin) was the same as the commercial product. […] The solubility of phenytoin is elevated in the presence of fosphenytoin probably through micellar or complex formation (Anderson et al. J. Pharm. Sci. 74 375-381; Muller et al. Int. J. Pharm. 75 201-209, 1991).

[4] = cited from earlier work
[5] = literature value; cited from earlier work
[6] = pH values >8.0; cited from earlier work
[7] = 25° C.
Source text: Two different shelf-life criteria were considered; time to exceed phenytoin solubility in the presence and absence of (SBE)7m-β-CD and 0.5% phenytoin production.

[8] = Arrhenius plot for phenytoin production rate from fosphenytoin; format: physicochemical
Source text: These values are higher than those reported previously; 30.8 kcal/mol and also are higher than Ea values reported from most other drug degradation studies (10-30 kcal/mol) (Yoshioka, S. Stability of Drugs and Dosage Forms, Nankodo Co. Ltd., Tokyo, 1995; pp.30-67). One possible explanation for the difference may be the effect of temperature on the pH of tris buffer solutions. […] Consequently, the change of phenytoin production rate can attribute not only to the direct effect of temperature on the kinetics but also the effect of temperature on pH. Since our principal goal was to study the effect of temperature on the stability of some protype formulations, buffer pH values were not adjusted at each temperature.

[9] = high pH 8.5 formulation, refrigeration; cited from earlier work

SMILES: O=C1NC(=O)C(c2ccccc2)(c2ccccc2)N1 [phenytoin]
Kd ([1]; pH 7.4): 0.932 mM | Kd ([1]; pH 8): 1.26 mM | Type of phase solubility diagram ([1]; 25° C., pH 7.4 and 8.0, presence or absence of 80.6 mg/ml fosphenytoin): AL-type | Solubility enhancement in presence of fosphenytoin vs absence ([1]; (SBE)7m-β-CD, 25° C.): lower than that in the absence of fosphenytoin | pKa value [2]: 8.06-8.33 | solubility at 120 h ([3]; pH 7.4, aqueous buffer, pH 7.4, 0 mM (SBE)7m-β-CD, 25° C., read-out: Phenytoin Conc. (Solubility Criteria)): 49.8 µg/mL | solubility at 120 h ([3]; pH 7.4, aqueous buffer, pH 7.4, 60 mM (SBE)7m-β-CD, 25° C., read-out: Phenytoin Conc. (Solubility Criteria)): 451 µg/mL | solubility at 120 h ([3]; pH 7.4, aqueous buffer, pH 7.4, 25° C., absence of fosphenytoin, read-out: Solubility of phenytoin): 18.1 µg/mL | solubility at 120 h ([3]; pH 7.4, aqueous buffer, pH 7.4, 25° C., presence of fosphenytoin 80.6 mg/ml, read-out: Solubility of phenytoin): 49.8 µg/mL | solubility at 120 h ([3]; pH 8, aqueous buffer, pH 8.0, 0 mM (SBE)7m-β-CD, 25° C., read-out: Phenytoin Conc. (Solubility Criteria)): 61.9 µg/mL | solubility at 120 h ([3]; pH 8, aqueous buffer, pH 8.0, 30 mM (SBE)7m-β-CD, 25° C., read-out: Phenytoin Conc. (Solubility Criteria)): 274 µg/mL | solubility at 120 h ([3]; pH 8, aqueous buffer, pH 8.0, 60 mM (SBE)7m-β-CD, 25° C., read-out: Phenytoin Conc. (Solubility Criteria)): 476 µg/mL | solubility at 120 h ([3]; pH 8, aqueous buffer, pH 8.0, 25° C., presence of fosphenytoin 80.6 mg/ml, read-out: Solubility of phenytoin): 61.9 µg/mL | solubility at 120 h ([3]; pH 8, aqueous buffer, pH 8.0, 25° C., printed 'in the absence of phenytoin', read-out: Solubility of phenytoin): 27.5 µg/mL | Solubility ([4]; pH values <8): 20 to 25 µg/mL | Intrinsic aqueous solubility ([4]; phenytoin, background): less than 25 μg/ml

Kd ([1]; pH 7.4): 25.6 mM | Kd ([1]; pH 8): 29.4 mM | Kinetics of phenytoin production (0.02M tris, 60° C., pH 7.4 and 8.0): apparent zero-order kinetics | Kinetics of phenytoin production (all temperatures, CD concentrations and both pH values): pseudo zero-order kinetics | Rate of Phenytoin Production (pH 7.4, 25° C., 0 mM CD): 0.160 µg/mL/day | Rate of Phenytoin Production (pH 7.4, 25° C., 60 mM CD): 0.133 µg/mL/day | Rate of Phenytoin Production (pH 7.4, 37° C., 60 mM CD): 0.993 µg/mL/day | Rate of Phenytoin Production (pH 7.4, 50° C., 60 mM CD): 21.37 µg/mL/day | Rate of Phenytoin Production (pH 7.4, 60° C., 0 mM CD): 111.8 µg/mL/day | Rate of Phenytoin Production (pH 8.0, 25° C., 0 mM CD): 0.083 µg/mL/day | Rate of Phenytoin Production (pH 8.0, 25° C., 30 mM CD): 0.088 µg/mL/day | Rate of Phenytoin Production (pH 8.0, 25° C., 60 mM CD): 0.075 µg/mL/day | Rate of Phenytoin Production (pH 8.0, 37° C., 0 mM CD): 0.634 µg/mL/day | Rate of Phenytoin Production (pH 8.0, 37° C., 30 mM CD): 0.600 µg/mL/day | Rate of Phenytoin Production (pH 8.0, 37° C., 60 mM CD): 0.562 µg/mL/day | Rate of Phenytoin Production (pH 8.0, 50° C., 30 mM CD): 14.43 µg/mL/day | Rate of Phenytoin Production (pH 8.0, 50° C., 60 mM CD): 13.82 µg/mL/day | Rate of Phenytoin Production (pH 8.0, 60° C., 0 mM CD): 67.20 µg/mL/day | Time without phenytoin precipitation ([7]; 60 mM (SBE)7m-β-CD, either pH): over two years | Physically stable formulations, shelf-life ([7]; pH range 7.4-8.0): greater than two years | Time without phenytoin precipitation ([7]; pH 8.0, 60 mM (SBE)7m-β-CD): at least 17 years | Shelf-life by 0.5% phenytoin production criterion ([7]; with (SBE)7m-β-CD): greater than two year | Ea (apparent activation energy), phenytoin production ([8]; pH 7.4): 38.9 kcal/mol | Ea (apparent activation energy), phenytoin production ([8]; pH 8.0): 39.5 kcal/mol
SMILES: O=C1NC(c2ccccc2)(c2ccccc2)C(=O)N1COP(=O)(O)O [fosphenytoin]
Ea reported previously [5]: 30.8 kcal/mol | Influence of (SBE)7m-β-CD on phenytoin production rate (30 or 60 mM (SBE)7m-β-CD, fosphenytoin 80.6 mg/ml): did not appear to influence the phenytoin production rate although here was a very slight trend to greater stability with increasing (SBE)7m-β-CD concentration | Degradant peaks (phenytoin vs earlier eluting peak) (pH 7.4): phenytoin was the major degradant peak observed | Degradant peaks (phenytoin vs earlier eluting peak) (pH 8): this peak had an area comparable to that of phenytoin | Stability at higher pH [6]: more unstable | Shelf-life of the prodrug product [9]: two years
